Assay [1] can be described thus: Enzymatic activity of protein tyrosine phosphatase 1B in the presence (10 uM) was measured using para-nitrophenylphosphate (pNPP) as the substrate in the presence of TCEP (1 mM); inhibited.
Assay [2] in a line: Enzymatic activity of protein tyrosine phosphatase 1B in the presence (10 uM) was measured using para-nitrophenylphosphate (pNPP) as the substrate in the presence of TCEP (1 mM) and catalase (25 ug/mL); activity not restored.
Assay [3] can be described thus: Enzymatic activity of protein tyrosine phosphatase 1B in the presence (10 uM) was measured using para-nitrophenylphosphate (pNPP) as the substrate; active.
Assay [4] can be described thus: Inhibitory activity against Protein-tyrosine phosphatase activity; active.
A short description of assay [5]: Enzymatic activity of protein tyrosine phosphatase 1B in the presence (10 uM) was measured using para-nitrophenylphosphate (pNPP) as the substrate in the presence of […] (1 mM); inhibited.
Assay [6] in a line: Enzymatic activity of protein tyrosine phosphatase 1B in the presence (10 uM) was measured using para-nitrophenylphosphate (pNPP) as the substrate in the presence of […] (1 mM) and catalase (25 ug/mL); abolished the inhibitory effect.

Activity calls are given as the source filed them. The calls are words filed in the database; no cut-off is given here.

For `CC1(C)C=C2C(=NN(c3ccccc3)C(N)=C2C#N)CO1.O=C(O)CCP(CCC(=O)O)CCC(=O)O`, the Activity entry in assay [1] and in assay [2] was “activity not restored” throughout.

For `O=C(O)CCP(CCC(=O)O)CCC(=O)O`, in assay [3], the outcome was Active.

On to `O=C1CC(=O)N(c2ccccc2)O1`, for which the result in assay [4] was Active.

Take `OO`: the result in assay [4] was Active.

With `CC1(C)C=C2C(=NN(c3ccccc3)C(N)=C2C#N)CO1.OC(CS)C(O)CS`, the Activity result in assay [5] and in assay [6] was “abolished the inhibitory effect” each time.

With `CC1(C)C=C2C(=NN(c3ccccc3)C(N)=C2C#N)CO1`, the result in assay [3] was Active.

In the case of `OC(CS)C(O)CS` (centres undefined), in assay [3], the result was Active.

For the origin of these results see ChEMBL document CHEMBL1137949, “Mechanism of action of pyridazine analogues on protein tyrosine phosphatase 1B (PTP1B)” (Bioorg Med Chem Lett, 2004).
